# Patent publication US20260240851A1, “Treatment of Parkinson's Disease in a Patient Using a Glucocerebrosidase Activator” (BIAL - R&D Investments, S.A., priority 2023, published 2026)
# Like-named read-outs stand apart in the source and are kept apart here.
# Key:
# [1] = LTI-291-001 single ascending dose study: plasma pharmacokinetics and food effect; type: in vivo, human; settings: for Vd/F: read-out: Vz/F
# Procedure: This study was a first-in-human Phase 1, randomized, double-blind, placebo-controlled, single-ascending dose study to evaluate the safety and tolerability, PK, and PD of escalating single oral doses of Compound A (3, 10, 30, and 90 mg) in 4 cohorts of healthy subjects. A total of 32 subjects received a single oral dose of Compound A (8 per dose group) and 8 subjects received placebo. The effect of food on the PK of Compound A was evaluated by administering a second single oral dose of 10 mg Compound A to the subjects in Cohort 2 on a separate occasion, after subjects had completed a high-fat breakfast. Blood samples for Compound A PK were collected up to 48 hours after each dose.
# [2] = system: GluCer, GluSph and LacCer in plasma, PBMCs and CSF; test: LTI-291-003: glycolipid biomarkers; type: in vivo, human; settings: for GluCer and LacCer in PBMCs: GBA-PD
# Procedure: GluCer, GluSph, and LacCer were measured in plasma, PBMCs, and CSF as biomarkers of pharmacological effects. The pharmacodynamic evaluations also consisted of a battery of NeuroCart assessments (Saccadic Eye Movements, Smooth Pursuit Eye Movements, Adaptive Tracking, Body Sway, and Visual Verbal Learning Test); functional outcome measures (MDS-UPDRS Part III, and the MMSE); and pharmaco-EEG.
# [3] = LTI-291-003: safety and tolerability; type: in vivo, human
# Text: This study was a Phase 1b, randomized, double-blind, placebo-controlled, multiple oral dose study of Compound A in 40 subjects (aged 40 to 80 years) with GBA-PD. Approximately 50% of the enrolled subjects had major (loss of 30%-50% total activity) mutations in GCase and 50% had polymorphism mutation (loss of 10%-20% of total activity) mutations in GCase. The objectives of this study were to investigate the safety, tolerability, and PK of multiple once-daily oral administration of Compound A and to explore the accompanying pharmacodynamic changes in subjects with GBA-PD with major and polymorphism mutations. Subjects received once-daily oral doses of 10 mg (n=10), 30 mg (n=10), or 60 mg (2×30 mg capsules) (n=10) Compound A or placebo (n=10) for 28 consecutive days.
# [4] = LTI-291-004: safety and tolerability; type: in vivo, human
# Procedure: This study was a Phase 1B, randomized, double-blind, placebo-controlled, multiple oral dose study of Compound A in 14 subjects (aged 51 to 81 years) with GBA-PD. The objectives of this study were to investigate the safety, tolerability, and PK of multiple once-daily oral administration of Compound A and to explore the accompanying pharmacodynamic changes. Subjects received once-daily oral doses of 10 mg (n=6) or 60 mg (2×30 mg capsules) (n=6) Compound A or placebo (n=2) for 28 consecutive days. PK samples were measured once on Day 7 and Day 14 and 4 times after the last dose on Day 28. Plasma concentrations were summarized at each time point, and no PK parameters were estimated. The PD evaluations included fMRI measures; FDG-PET to determine the metabolic rate of glucose in specific regions of the brain; and functional outcome measures (MDS-UPDRS Part III and the MMSE). GluCer, GluSph, and LacCer and other sphingolipids were measured in PBMCs and plasma as biomarkers of pharmacological effect.
# [5] = BIA 28-6156-107 DDI: effect of multiple-dose carbamazepine on single-dose PK of Compound A; type: in vivo, human; settings: for Tmax / half-life: both sexes, human, in vivo, oral; for Tmax: read-out: Median Tmax; for half-life: read-out: geometric mean t1/2 (converted)
# [6] = BIA 28-6156-110 DDI, rosuvastatin portion; type: in vivo, human; settings: after 6 days of dosing with 60 mg, rosuvastatin portion
# Procedure: In Cohort 1, a single oral dose of 10 mg rosuvastatin was administered alone on Day 1. No drug was administered on Day 2. From Day 3 to Day 8, a single daily dose of 60 mg Compound A was administered.
# [7] = BIA 28-6156-105: continuous cardiac monitoring, concentration-QTc analysis
# [8] = 3 mg fasted, single oral dose, geometric mean
# [9] = 10 mg fasted, single oral dose, geometric mean
# [10] = 10 mg fed, single oral dose, geometric mean
# [11] = 10 mg, high-fat breakfast vs fasted
# [12] = 30 mg fasted, single oral dose, geometric mean
# [13] = 90 mg fasted, single oral dose, geometric mean
# [14] = human, plasma, po, 3 mg, 3 mg fasted, single oral dose, geometric mean
# [15] = human, plasma, po, 10 mg, 10 mg fasted, single oral dose, geometric mean
# [16] = human, plasma, po, 10 mg, 10 mg fed, single oral dose, geometric mean
# [17] = human, plasma, po, 30 mg, 30 mg fasted, single oral dose, geometric mean
# [18] = human, plasma, po, 90 mg, 90 mg fasted, single oral dose, geometric mean
# [19] = Compound A + carbamazepine vs Compound A alone
# [20] = 60 mg Compound A administered alone
structure (smiles),measurement,setting,value
"CCCCCO[C@H]1CC[C@H](NC(=O)c2cnn3c(C)cc(C)nc23)CC1 [Compound A, 5,7-dimethyl-N-((1S*,4S)-4-(pentyloxy)cyclohexyl)pyrazolo[1,5-a]pyrimidine-3-carboxamide]",AUC0-inf/dose,[1]; [8],754 ng·h/mL/mg
same,Cmax/dose,[1]; [8],36.4 ng/mL/mg
same,AUC0-inf/dose,[1]; [9],756 ng·h/mL/mg
same,Cmax/dose,[1]; [9],32.8 ng/mL/mg
same,Tmax,"[1]; 10 mg fasted, single oral dose, median",1.01 h
same,AUC0-inf/dose,[1]; [10],853 ng·h/mL/mg
same,Cmax/dose,[1]; [10],23.4 ng/mL/mg
same,"ratio of geometric means fed to fasting, AUC0-inf",[1]; [11],111%
same,"ratio of geometric means fed to fasting, AUC0-last",[1]; [11],103%
same,"ratio of geometric means fed to fasting, Cmax",[1]; [11],71.3%
same,AUC0-inf/dose,[1]; [12],821 ng·h/mL/mg
same,Cmax/dose,[1]; [12],32.0 ng/mL/mg
same,AUC0-inf/dose,[1]; [13],704 ng·h/mL/mg
same,Cmax/dose,[1]; [13],29.4 ng/mL/mg
same,total exposure (Cmax and AUC0-inf) versus dose,[1]; entire dose range 3-90 mg,increase in a dose proportional manner
same,half-life,"[1]; human, plasma, oral, across fasted and fed groups, read-out: Geometric mean t1/2",21.2 to 23.4 h
same,Tmax,"[1]; human, plasma, oral, single dose 3-90 mg, fasted, medians across dose groups, read-out: median Tmax",1 to 3 h
same,Tmax,"[1]; human, plasma, oral, single dose 3-90 mg, fasted, minimum to maximum, read-out: Tmax, range",1 to 8.2 h
same,AUC(0-inf),[1]; [14],2260 ng·h/mL
same,AUC(0-t),[1]; [14],1560 ng·h/mL
same,Cmax,[1]; [14],109 ng/mL
same,Vd/F,[1]; [14],40.5 L
same,half-life,"[1]; human, plasma, po, 3 mg, 3 mg fasted, single oral dose, geometric mean, read-out: t1/2 (converted)",21.2 h
same,Tmax,"[1]; human, plasma, po, 3 mg, 3 mg fasted, single oral dose, median, read-out: Tmax",1.48 h
same,AUC(0-inf),[1]; [15],7560 ng·h/mL
same,AUC(0-t),[1]; [15],5690 ng·h/mL
same,Cmax,[1]; [15],328 ng/mL
same,Vd/F,[1]; [15],42.4 L
same,half-life,"[1]; human, plasma, po, 10 mg, 10 mg fasted, single oral dose, geometric mean, read-out: t1/2 (converted)",22.2 h
same,Tmax,"[1]; human, plasma, po, 10 mg, 10 mg fasted, single oral dose, median, read-out: Tmax",1 h
same,AUC(0-inf),[1]; [16],8530 ng·h/mL
same,AUC(0-t),[1]; [16],5860 ng·h/mL
same,Cmax,[1]; [16],234 ng/mL
same,Vd/F,[1]; [16],39.6 L
same,half-life,"[1]; human, plasma, po, 10 mg, 10 mg fed, single oral dose, geometric mean, read-out: t1/2 (converted)",23.4 h
same,Tmax,"[1]; human, plasma, po, 10 mg, 10 mg fed, single oral dose, median, read-out: Tmax",8 h
same,AUC(0-inf),[1]; [17],24600 ng·h/mL
same,AUC(0-t),[1]; [17],18400 ng·h/mL
same,Cmax,[1]; [17],961 ng/mL
same,Vd/F,[1]; [17],40.8 L
same,half-life,"[1]; human, plasma, po, 30 mg, 30 mg fasted, single oral dose, geometric mean, read-out: t1/2 (converted)",23.2 h
same,Tmax,"[1]; human, plasma, po, 30 mg, 30 mg fasted, single oral dose, median, read-out: Tmax",3.02 h
same,AUC(0-inf),[1]; [18],63400 ng·h/mL
same,AUC(0-t),[1]; [18],47800 ng·h/mL
same,Cmax,[1]; [18],2640 ng/mL
same,Vd/F,[1]; [18],47.7 L
same,half-life,"[1]; human, plasma, po, 90 mg, 90 mg fasted, single oral dose, geometric mean, read-out: t1/2 (converted)",23.3 h
same,Tmax,"[1]; human, plasma, po, 90 mg, 90 mg fasted, single oral dose, median, read-out: Tmax",2 h
same,GluCer and LacCer in PBMCs,[2]; 7 and 14 days of treatment,statistically significant increase
same,dose-response or exposure-response of PBMC glycolipid effects,"[2]; 10, 30, 60 mg/day",no obvious dose-response or exposure response relationship
same,plasma or CSF levels of glycolipids,[2]; 28 days,no obvious changes
same,GluCer and LacCer in PBMCs,[2]; 28 days of treatment,smaller increase
same,PBMC glycolipid effects by severity of GBA1 mutation,[2]; Gaucher or major vs polymorphism GBA1 mutations,generally greater
same,Intracellular GluSph in PBMCs,[2]; vs placebo,did not show a clear response
same,"deaths, SAEs, severe AEs, discontinuations due to AEs","[3]; 10-60 mg daily for 28 days, GBA-PD","No deaths, other SAEs, severe AEs, or discontinuations due to AEs"
same,"vital signs, laboratory safety assessments, ECG parameters",[3]; 28 days,no clinically significant safety observations
same,"AE back pain, patients",[3]; all Compound A groups,13.3%
same,"AE fatigue, patients",[3]; all Compound A groups,16.7%
same,"AE headache, subjects",[3]; all Compound A groups,13.3%
same,"AE worsening of Parkinson's disease symptoms, subjects",[3]; all Compound A groups,13.3%
same,"deaths, SAEs, severe AEs",[4]; 10 or 60 mg daily for 28 days,"No deaths, other SAEs, or severe AEs"
same,relatedness of AEs to study treatment,[4]; in vivo,None of the AEs were considered related to the study treatment
same,"vital signs, laboratory safety assessments, physical examinations, ECG parameters",[4]; in vivo,no clinically significant safety observations
same,AUC0-inf ratio of geometric least squares means (point estimate),[5]; [19],0.363
same,AUC0-last ratio of geometric least squares means (point estimate),[5]; [19],0.367
same,Cmax ratio of geometric least squares means (point estimate),[5]; [19],0.877
same,Tmax,[5]; [20],1 h
same,half-life,[5]; [20],28 h
same,Tmax,[5]; 60 mg Compound A coadministered with carbamazepine,2 h
same,half-life,[5]; Compound A coadministered with carbamazepine,12 h
same,reduction of AUC0-inf,[5]; with carbamazepine vs alone,64%
same,reduction of AUC0-last,[5]; with carbamazepine vs alone,63%
same,reduction of Cmax,[5]; with carbamazepine vs alone,approximately 12%
same,steady state concentrations of Compound A,[6],appeared not to have been reached
same,effects on cardiac ECG parameters,[7]; doses of 60 and 150 mg,no clinically relevant effects
same,effect on ΔΔQTcF (concentration-QTc analysis),[7]; plasma concentrations of Compound A up to approximately 7150 ng/mL,≤ 10 ms
